Among the data in PubChem BioAssay (NCI) are GI50 and TGI values, retold here.

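Results reflect a 48-hour exposure of cells in 96-well plates to compound at five concentrations. GI50 = concentration required for 50% inhibition of growth. TGI: concentration producing complete growth inhibition.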

What all share (experiment): growth of human tumour cells (NCI), 48 h
Experiment [1] has as its system SNB-75 CNS.
For experiment [2], the system named is OVCAR-3 ovarian.
For experiment [3], the system named is COLO 205 colon.
Experiment [4] concerns SK-OV-3 ovarian.
The subject of experiment [5] is OVCAR-4 ovarian.
The subject of experiment [6] is HCT-116 colon.
Experiment [7] concerns HCT-15 colon.
Experiment [8] concerns SK-MEL-28 melanoma.
Experiment [9] concerns NCI-H460 lung.
Experiment [10] relates to HOP-62 NSCLC.

As to `Nc1nc(N)c2c(ccc3nccc32)[nH]1`, the GI50 in [1] was 17.2 µM; in experiment [2] it was 7.68 µM; in experiment [3] it was 8.03 µM; in experiment [4], 18.4 µM; in experiment [5], 21.5 µM; in experiment [6], 0.934 µM. For the same compound, the GI50 in [7] is 2.35 µM; in [8] it was 14.7 µM; in experiment [9], 0.439 µM; in experiment [10], 24.8 µM. In addition, the TGI in [1] is 89.4 µM; in experiment [2], 36.6 µM; in experiment [3], 50.9 µM; in experiment [4] it was over 81.5 µM; in experiment [5], 66.6 µM; in experiment [6] it was over 71.2 µM. The TGI in experiment [7] is over 100 µM; in experiment [8], over 93.8 µM; in experiment [9], 14.5 µM; in experiment [10], over 100 µM.
On to `Nc1c(C(=O)c2cccc(C#CCN3CCOCC3)c2)cnn1-c1ccc(F)cc1`, for which the GI50 in [1] was over 6.15 µM; in experiment [2], over 23.1 µM; in experiment [3] it was 7.97 µM; in experiment [4], over 25 µM; in experiment [5] it was over 25 µM; in [6] it was over 22.8 µM. In addition, the GI50 in experiment [7] was 11.2 µM; in [8], over 25 µM; in [9] it was over 16.5 µM; in [10] it was over 25 µM. Also, the TGI in [1], in [2], in experiment [3], in [4], in experiment [5] and in experiment [6] was over 25 µM throughout. Moreover, the TGI in experiment [7], in experiment [8], in experiment [9] and in [10] was over 25 µM each time.
Turning to `CCCCCCCCCCCC[n+]1ccccc1`, the GI50 in experiment [1] was 1.16 µM; in experiment [2], 0.835 µM; in experiment [3], 0.868 µM; in experiment [4] it was 1.73 µM; in experiment [5], 0.515 µM; in [6], 1.92 µM. In addition, the GI50 was 2.61 µM in experiment [7], 1.68 µM in experiment [8], 1.76 µM in experiment [9] and 1.9 µM in [10]. The TGI in experiment [1] is 4.05 µM; in experiment [2] it was 2.88 µM; in [3] it was 2.66 µM; in experiment [4], 6.35 µM; in experiment [5], 14.5 µM; in [6], 10.7 µM. For the same compound, the TGI in experiment [7] was determined as 16.4 µM; in experiment [8], 5.12 µM; in experiment [9] it was 4.58 µM; in [10], 5.57 µM.
Turning to `CN1CCN(Cc2ccc(NC(=O)c3nc4ccc5[nH]ncc5c4c4c3CCC4)cc2C(F)(F)F)CC1`, the GI50 was 4.81 µM in experiment [1]; 0.904 µM in [2]; 7.27 µM in experiment [3]; 8.28 µM in experiment [4]; 0.911 µM in experiment [5]; 0.856 µM in experiment [6]. Besides, the GI50 in experiment [7] is 0.87 µM; in experiment [8] it was 0.899 µM; in experiment [9] it was 0.926 µM; in [10] it was 0.867 µM. Besides, the TGI is 10.8 µM in experiment [1]; 1.68 µM in experiment [2]; 14.7 µM in experiment [3]; 15.5 µM in experiment [4]; 1.98 µM in experiment [5]; 1.61 µM in experiment [6]. In addition, the TGI came out at 1.75 µM in experiment [7], 1.62 µM in experiment [8], 1.73 µM in experiment [9] and 1.71 µM in experiment [10].
As for `CC(=O)OC1C/C(C)=C/CCC(C)/C=C/C2(C)CCC(C(C)(C)O)C12` (stereo not given), the TGI in experiment [1] was over 100 µM; in [2] it was over 100 µM; in [3], over 100 µM; in [4], over 100 µM; in experiment [5], over 100 µM; in experiment [6] it was 77.1 µM. The TGI in experiment [7], in experiment [8], in experiment [9] and in experiment [10] was over 100 µM each time.
`CC(=O)Nc1ccccc1-c1cnc2ccccc2n1`: the TGI in experiment [1], in experiment [2], in [3], in experiment [4], in [5] and in experiment [6] was over 100 µM each time. Moreover, the TGI in [7], in experiment [8], in experiment [9] and in experiment [10] was over 100 µM each time.
Take `COC(=O)c1c2c(c(-c3ccccc3)c3c1-c1nc(Cl)ccc1CC3)CCc1ccc(Cl)nc1-2`: the TGI in [1], in experiment [2], in experiment [3], in experiment [4], in experiment [5] and in experiment [6] was over 100 µM each time. In addition, the TGI in experiment [7], in experiment [8], in [9] and in experiment [10] was over 100 µM in each case.
For the compound `CC(=O)OCC1OC(n2c(=O)n(-c3ccccc3)c(=O)c3cc(Br)cc(Br)c32)C(OC(C)=O)C(OC(C)=O)C1OC(C)=O` (stereo not given), the TGI was over 100 µM in [1]; over 100 µM in [2]; over 100 µM in [3]; over 100 µM in [4]; 61.5 µM in experiment [5]; over 100 µM in experiment [6]. The TGI in experiment [7], in experiment [8], in experiment [9] and in [10] was over 100 µM each time.
With `COc1cc2nc(N3CCCC3)nc(Nc3ccccc3)c2cc1OC`, the GI50 in [1] is 1.39 µM; in experiment [2], 1.8 µM; in [3], 1.3 µM; in [4] it was 1.99 µM; in [5] it was 1.43 µM; in experiment [6], 0.58 µM. In addition, the GI50 was 0.68 µM in [7], 1.76 µM in experiment [8], 1.86 µM in experiment [9] and 1.93 µM in experiment [10]. Further, the TGI in [1] came to 2.7 µM; in [2], 3.3 µM; in experiment [3], 3.96 µM; in experiment [4] it was 3.72 µM; in experiment [5], 2.8 µM; in experiment [6] it was 2.44 µM. The TGI in experiment [7] stood at 2.04 µM; in experiment [8], 3.18 µM; in [9], 3.59 µM; in [10] it was 4.2 µM.
